Blank lines part the entries; values can stand above or below the molecule they belong to.
Legend:
[1] = tested on: NCI-H2228; test: cells; settings: Homo sapiens, NCI-H2228, 72 h
Description: Antiproliferative activity against human NCI-H2228 cells assessed as reduction in cell viability measured after 72 hrs by CCK8 assay

[2] = Toxicity in BALB/c nu/nu mouse xenografted with human NCI-H2228 cells at 50 mg/kg, po qd for 23 days; format: organism-based; settings: in vivo, 552 h, time 23 day
[3] = Toxicity in BALB/c nu/nu mouse xenografted with human NCI-H2228 cells assessed as body weight loss at 50 mg/kg, po qd for 23 days; format: organism-based; settings: in vivo, 552 h, time 23 day
[4] = AUC (0 to t) in human NCI-H2228 cells xenografted BALB/c nu/nu mouse plasma at 50 mg/kg, po qd for 23 days by UPLC-MS/MS analysis; format: ADME, organism-based; parameters: time 23 day, dose 50 mg/kg, route po
[5] = Tmax in human NCI-H2228 cells xenografted BALB/c nu/nu mouse plasma at 50 mg/kg, po qd for 23 days by UPLC-MS/MS analysis; format: ADME, organism-based; settings: time 23 day
[6] = Cmax in human NCI-H2228 cells xenografted BALB/c nu/nu mouse plasma at 50 mg/kg, po qd for 23 days by UPLC-MS/MS analysis; format: ADME, organism-based; parameters: time 23 day, dose 50 mg/kg, route po
[7] = Drug uptake in tumor of BALB/c nu/nu mouse xenografted with human NCI-H2228 cells at 50 mg/kg, po qd for 23 days and measured at 6 hrs post-last drug dosage by UPLC-MS/MS analysis; format: ADME, organism-based, Neoplasm; settings: time 23 day, read-out: Drug uptake
[8] = in vitro; settings: human, liver microsomes
Description: Half life in human liver microsomes at 1 uM preincubated for 5 mins followed by NADPH addition and measured for 60 mins by LC-MS/MS analysis

[9] = in vitro; settings: human, liver microsomes; remark: listed apart in the source
Description: Intrinsic clearance in human liver microsomes at 1 uM preincubated for 5 mins followed by NADPH addition and measured for 60 mins by LC-MS/MS analysis

[10] = in vitro; settings: human, liver microsomes; remark: listed apart in the source
Description: Metabolic stability of the compound in human liver microsomes assessed as parent compound remaining at 1 uM preincubated for 5 mins followed by NADPH addition and measured after 60 mins by LC-MS/MS analysis

[11] = in vitro; settings: mouse, liver microsomes
Description: Half life in mouse liver microsomes at 1 uM preincubated for 5 mins followed by NADPH addition and measured for 60 mins by LC-MS/MS analysis

[12] = in vitro; settings: mouse, liver microsomes; remark: listed apart in the source
Description: Intrinsic clearance in mouse liver microsomes at 1 uM preincubated for 5 mins followed by NADPH addition and measured for 60 mins by LC-MS/MS analysis

[13] = in vitro; settings: mouse, liver microsomes; remark: listed apart in the source
Description: Metabolic stability of the compound in mouse liver microsomes assessed as parent compound remaining at 1 uM preincubated for 5 mins followed by NADPH addition and measured after 60 mins by LC-MS/MS analysis

[14] = tested on: NCI-H2228; test: animal or person; settings: Mus musculus, NCI-H2228, po, 552 h, read-out: TGI

SMILES: COc1cc(N2CCC(N(C)C)CC2)ccc1Nc1ncc(Cl)c(Nc2cccc3c2B(O)OC3)n1
IC50 [1]: 624 nM

SMILES: COc1cc(N2CCC(N(C)C)CC2)ccc1Nc1ncc(Cl)c(Nc2ccc3c(c2)B(O)OC3)n1
Activity [2]: Non-Toxic
Activity [3]: Non-Toxic
AUC(0-t) at 552 h [4]: 15400 ng·h/mL
Tmax [5]: 3.6 h
Cmax [6]: 3200 ng/mL
concentration at 552 h [7]: 1200 ng/g
IC50 [1]: 520 nM
half-life at 1 h, 1 µM [8]: 3.97 h
microsomal CLint at 1 h, 1 µM [9]: 5.8 µL/min/mg
remaining at 1 h, 1 µM [10]: 82.6%
half-life at 1 h, 1 µM [11]: 0.633 h
microsomal CLint at 1 h, 1 µM [12]: 36.5 µL/min/mg
remaining at 1 h, 1 µM [13]: 32.8%
inhibition in vivo at 50 mg/kg [14]: 52%

SMILES: COc1cc(N2CCN(C)CC2)ccc1Nc1ncc(Cl)c(Nc2ccc3c(c2)B(O)OC3)n1
IC50 [1]: 825 nM
half-life at 1 h, 1 µM [8]: 2.97 h
microsomal CLint at 1 h, 1 µM [9]: 7.8 µL/min/mg
remaining at 1 h, 1 µM [10]: 77.8%
half-life at 1 h, 1 µM [11]: 0.725 h
microsomal CLint at 1 h, 1 µM [12]: 31.9 µL/min/mg
remaining at 1 h, 1 µM [13]: 37.4%

The remaining lines, values ahead:

IC50 [1]: 617 nM
SMILES: Cc1cc(Nc2ncc(Cl)c(Nc3cccc4c3B(O)OC4)n2)c(OC(C)C)cc1C1CCNCC1

IC50 [1]: 699 nM
SMILES: COc1cc(N2CCC(N3CCN(C)CC3)CC2)ccc1Nc1ncc(Cl)c(Nc2cccc3c2B(O)OC3)n1

IC50 [1]: 2550 nM
SMILES: Cc1cc(Nc2ncc(Cl)c(Nc3ccc4c(c3)B(O)OC4)n2)c(OC(C)C)cc1C1CCNCC1

IC50 [1]: 1130 nM
SMILES: COc1cc(N2CCC(N3CCN(C)CC3)CC2)ccc1Nc1ncc(Cl)c(Nc2ccc3c(c2)B(O)OC3)n1
